US12441703B2, “Carboxamides as modulators of sodium channels” (VERTEX PHARMACEUTICALS INCORPORATED, priority 2019, dated 2025)

These compounds were tested against human NaV 1.8 (Homo sapiens, UniProt Q9Y5Y9) (assay: E-VIPR assay for detecting and measuring NaV inhibition properties). Details: E-VIPR assay conducted in the presence of human serum; HEK cells expressing truncated human NaV 1.8; read-out: IC50.
human NaV 1.8, sequence (Q9Y5Y9 whole entry, looked up, the tested form may be a part): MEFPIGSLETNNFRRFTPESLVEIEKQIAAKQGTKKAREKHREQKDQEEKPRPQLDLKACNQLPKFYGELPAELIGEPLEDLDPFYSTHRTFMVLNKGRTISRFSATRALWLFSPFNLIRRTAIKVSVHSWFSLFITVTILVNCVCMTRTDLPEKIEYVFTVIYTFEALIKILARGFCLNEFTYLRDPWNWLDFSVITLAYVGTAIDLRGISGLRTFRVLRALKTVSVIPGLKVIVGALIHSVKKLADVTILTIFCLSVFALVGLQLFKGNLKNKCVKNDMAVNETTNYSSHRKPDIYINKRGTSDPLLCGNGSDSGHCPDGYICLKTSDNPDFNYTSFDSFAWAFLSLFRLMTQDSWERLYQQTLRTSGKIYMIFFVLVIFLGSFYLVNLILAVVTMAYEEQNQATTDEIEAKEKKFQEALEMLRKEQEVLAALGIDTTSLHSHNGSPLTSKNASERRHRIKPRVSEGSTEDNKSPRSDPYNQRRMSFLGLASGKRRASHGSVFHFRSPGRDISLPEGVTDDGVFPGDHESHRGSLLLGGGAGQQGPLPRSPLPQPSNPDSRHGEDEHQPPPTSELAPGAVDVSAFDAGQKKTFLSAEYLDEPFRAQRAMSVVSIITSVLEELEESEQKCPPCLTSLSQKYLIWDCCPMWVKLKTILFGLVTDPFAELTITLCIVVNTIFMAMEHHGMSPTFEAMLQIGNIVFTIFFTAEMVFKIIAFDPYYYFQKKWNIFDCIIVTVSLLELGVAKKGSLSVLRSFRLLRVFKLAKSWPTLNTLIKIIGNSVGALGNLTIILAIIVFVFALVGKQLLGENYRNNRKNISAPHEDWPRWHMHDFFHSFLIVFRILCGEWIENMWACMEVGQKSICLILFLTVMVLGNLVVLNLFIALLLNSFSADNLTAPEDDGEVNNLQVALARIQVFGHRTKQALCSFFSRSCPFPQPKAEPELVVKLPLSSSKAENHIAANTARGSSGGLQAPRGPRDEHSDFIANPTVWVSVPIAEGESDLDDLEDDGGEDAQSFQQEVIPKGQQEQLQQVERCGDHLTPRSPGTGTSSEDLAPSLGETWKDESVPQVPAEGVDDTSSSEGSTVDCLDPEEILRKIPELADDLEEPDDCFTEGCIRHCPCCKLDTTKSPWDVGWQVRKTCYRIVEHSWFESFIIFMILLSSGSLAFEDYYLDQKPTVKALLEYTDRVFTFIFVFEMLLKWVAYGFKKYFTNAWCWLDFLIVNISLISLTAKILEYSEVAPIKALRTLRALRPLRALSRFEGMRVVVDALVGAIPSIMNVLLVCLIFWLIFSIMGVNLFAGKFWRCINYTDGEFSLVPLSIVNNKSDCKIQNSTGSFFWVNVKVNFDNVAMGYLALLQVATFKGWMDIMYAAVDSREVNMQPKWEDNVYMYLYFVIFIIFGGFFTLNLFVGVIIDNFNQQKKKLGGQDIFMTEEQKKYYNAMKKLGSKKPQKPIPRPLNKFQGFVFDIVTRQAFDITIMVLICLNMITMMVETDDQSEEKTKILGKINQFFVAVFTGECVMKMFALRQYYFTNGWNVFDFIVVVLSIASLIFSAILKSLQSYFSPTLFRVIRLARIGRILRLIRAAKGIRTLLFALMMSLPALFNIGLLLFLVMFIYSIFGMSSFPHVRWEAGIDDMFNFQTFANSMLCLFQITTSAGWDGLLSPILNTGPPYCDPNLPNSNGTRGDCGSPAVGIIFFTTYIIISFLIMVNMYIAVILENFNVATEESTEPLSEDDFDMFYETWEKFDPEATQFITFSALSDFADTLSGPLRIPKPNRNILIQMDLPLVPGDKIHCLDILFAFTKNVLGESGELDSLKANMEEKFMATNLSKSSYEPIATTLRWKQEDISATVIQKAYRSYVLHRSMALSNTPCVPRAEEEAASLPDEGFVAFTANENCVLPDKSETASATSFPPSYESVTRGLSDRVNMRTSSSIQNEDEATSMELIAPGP
Format: cell-based
Source text: Sodium ion channels are voltage-dependent proteins that can be activated by inducing membrane voltage changes by applying electric fields. The electrical stimulation instrument and methods of use, referred to as E-VIPR, are described in International Publication No. WO 2002/008748 A3 and C.-J. Huang et al. Characterization of voltage-gated sodium channel blockers by electrical stimulation and fluorescence detection of membrane potential, 24 Nature Biotech. 439-46 (2006), both of which are incorporated by reference in their entirety. The instrument comprises a microtiter plate handler, an optical system for exciting the coumarin dye while simultaneously recording the coumarin and oxonol emissions, a waveform generator, a current- or voltage-controlled amplifier, and parallel electrode pairs that are inserted into assay plate wells. Under integrated computer control, this instrument passes user-programmed electrical stimulus protocols to cells within the wells of the microtiter plate.
16-20 hours prior to running the assay on E-VIPR, HEK cells expressing a truncated form of human NaV 1.8 with full channel activity were seeded into microtiter 384-well plates, pre-coated with matrigel, at a density of 25,000 cells per well. 2.5-5% KIR2.1 Bacmam virus was added to the final cell suspension before seeding into cell plates. HEK cells were grown in Dulbecco's Modified Eagle's Medium (DMEM) supplemented with 10% FBS (Fetal Bovine Serum, qualified; Sigma #F4135), 1% NEAA (Non-Essential Amino Acids, Gibco #11140), 1% HEPES (Gibco #15630), 1% Pen-Strep (Penicillin-Streptomycin; Gibco #15140) and 5 μg/ml Blasticidin (Gibco #R210-01). Cells were expanded in vented cap cell culture flasks, with 90-95% humidity and 5% CO2.
Compound Loading Buffer (2× concentration): Na/TMA Cl Bath1 Buffer containing HS (omitted in experiments run in the absence of human serum (HS)) 50%, VABSC-1 1 mM, BSA 0.2 mg/ml (in Bath-1), KCl 9 mM, DMSO 0.75%.
• 1) To reach the final concentration in each well, 400 nL of each compound was pre-spotted (in neat DMSO) into polypropylene compound plates at 250× desired final concentration from an intermediate stock concentration of 0.075 mM, in an 11 point dose response, 3-fold dilution, resulting in a top dose of 300 nM final concentration in the cell plate. Vehicle control (neat DMSO), and positive control (an established NaV1.8 inhibitor, 25 μM final in assay in DMSO) were added manually to the outermost columns of each plate respectively. The compound plate was backfilled with 45 μL per well of Compound Loading Buffer resulting in a 250 fold dilution of compound following a 1:1 transfer of compound into the cell plate (see Step 6). Final DMSO concentration for all wells in the assay was 0.625% (0.75% DMSO was supplemented to the Compound Loading Buffer for a final DMSO concentration of 0.625%). This assay dilution protocol was adjusted to enable a higher dose range to be tested in the presence of HS or if the final assay volume was altered. • 2) Hexyl Dye Solution was prepared. • 3) Cell plates were prepared. On the day of the assay, the media was aspirated, and the cells were washed three times with 80 μL of Bath-1 buffer, maintaining 25 μL residual volume in each well. • 4) 25 μL per well of Hexyl Dye Solution was dispensed into the cell plates. The cells were incubated for 20 minutes at room temperature or ambient conditions in darkness. • 5) 45 μL per well of Compound Loading Buffer was dispensed into compound plates. • 6) The cell plates were washed three times with 80 μL per well of Bath-1 Buffer, leaving 25 µL of residual volume. Then 25 μL per well from compound plate was transferred to each cell plate. The mixture was incubated for 30 minutes at room temperature/ambient conditions. • 7) The cell plate containing compound was read on E-VIPR using the current-controlled amplifier to deliver stimulation wave pulses using a symmetrical biphasic waveform. […]
In the case of `NC(=O)c1cc(NC(=O)c2c(Oc3ccc(OC(F)(F)F)cc3C3CC3)ccc(C(F)(F)F)c2F)ccn1` [Compound 41, 4-[[6-[2-cyclopropyl-4-(trifluoromethoxy)phenoxy]-2-fluoro-3-(trifluoromethyl)benzoyl]amino]pyridine-2-carboxamide], the IC50 is reported as 10 nM.
In the case of `Cc1c(Oc2ccc(C(F)(F)F)c(F)c2C(=O)Nc2ccnc(C(N)=O)c2)ccc(F)c1F` [Compound 42, 4-[[6-(3,4-difluoro-2-methyl-phenoxy)-2-fluoro-3-(trifluoromethyl)benzoyl]amino]pyridine-2-carboxamide], the IC50 is reported as 8 nM.
`COc1cc(Cl)ccc1Oc1ccc(C(F)(F)F)c(F)c1C(=O)Nc1ccnc(C(N)=O)c1` [Compound 43, 4-[[6-(4-chloro-2-methoxy-phenoxy)-2-fluoro-3-(trifluoromethyl)benzoyl]amino]pyridine-2-carboxamide] showed an IC50 of 13 nM.
Work on `COc1cc(C(F)(F)C(F)(F)F)ccc1Oc1ccc(C(F)(F)F)c(F)c1C(=O)Nc1ccnc(C(N)=O)c1` [Compound 44, 4-[[2-fluoro-6-[2-methoxy-4-(1,1,2,2,2-pentafluoroethyl)phenoxy]-3-(trifluoromethyl)benzoyl]amino]pyridine-2-carboxamide] yielded an IC50 of 22 nM.
For `COc1cc(C)cc(OC)c1Oc1ccc(C(F)(F)F)c(F)c1C(=O)Nc1ccnc(C(N)=O)c1` [Compound 45, 4-[[6-(2,6-dimethoxy-4-methyl-phenoxy)-2-fluoro-3-(trifluoromethyl)benzoyl]amino]pyridine-2-carboxamide], the IC50 was > 3000 nM.
For `NC(=O)c1cc(NC(=O)c2c(Oc3c(F)cc(F)cc3F)ccc(C(F)(F)F)c2F)ccn1` [Compound 46, 4-[[2-fluoro-3-(trifluoromethyl)-6-(2,4,6-trifluorophenoxy)benzoyl]amino]pyridine-2-carboxamide], the IC50 was > 3000 nM.
With `Cc1cc(Cl)cc(Cl)c1Oc1ccc(C(F)(F)F)c(F)c1C(=O)Nc1ccnc(C(N)=O)c1` [Compound 47, 4-[[6-(2,4-dichloro-6-methyl-phenoxy)-2-fluoro-3-(trifluoromethyl)benzoyl]amino]pyridine-2-carboxamide] the IC50 was 1400 nM.
In the case of `Cc1c(F)ccc(Oc2ccc(C(F)(F)F)c(F)c2C(=O)Nc2ccnc(C(N)=O)c2)c1C` [Compound 48, 4-[[2-fluoro-6-(4-fluoro-2,3-dimethyl-phenoxy)-3-(trifluoromethyl)benzoyl]amino]pyridine-2-carboxamide], the IC50 is reported as 50 nM.
For `NC(=O)c1cc(NC(=O)c2c(Oc3ccc(F)c(F)c3F)ccc(C(F)(F)F)c2F)ccn1` [Compound 49, 4-[[2-fluoro-3-(trifluoromethyl)-6-(2,3,4-trifluorophenoxy)benzoyl]amino]pyridine-2-carboxamide], the IC50 was 42 nM.
`Cc1cc(Cl)ccc1Oc1ccc(C(F)(F)F)c(F)c1C(=O)Nc1ccnc(C(N)=O)c1` [Compound 50, 4-[[6-(4-chloro-2-methyl-phenoxy)-2-fluoro-3-(trifluoromethyl)benzoyl]amino]pyridine-2-carboxamide] showed an IC50 of 33 nM.
`NC(=O)c1cc(NC(=O)c2c(Oc3ccc(Cl)cc3F)ccc(C(F)(F)F)c2F)ccn1` [Compound 51, 4-[[6-(4-chloro-2-fluoro-phenoxy)-2-fluoro-3-(trifluoromethyl)benzoyl]amino]pyridine-2-carboxamide] showed an IC50 of 200 nM.
`COc1cc(F)ccc1Oc1ccc(C(F)(F)F)c(OC)c1C(=O)Nc1ccnc(C(N)=O)c1` [Compound 52, 4-[[6-(4-fluoro-2-methoxy-phenoxy)-2-methoxy-3-(trifluoromethyl)benzoyl]amino]pyridine-2-carboxamide] showed an IC50 of 170 nM.
For `COc1c(C(F)(F)F)ccc(Oc2ccc(OC(C)C)cc2)c1C(=O)Nc1ccnc(C(N)=O)c1` [Compound 53, 4-[[6-(4-isopropoxyphenoxy)-2-methoxy-3-(trifluoromethyl)benzoyl]amino]pyridine-2-carboxamide], the IC50 was 110 nM.
In the case of `COc1ccc(Cl)cc1Oc1ccc(C(F)(F)F)c(OC)c1C(=O)Nc1ccnc(C(N)=O)c1` [Compound 54, 4-[[6-(5-chloro-2-methoxy-phenoxy)-2-methoxy-3-(trifluoromethyl)benzoyl]amino]pyridine-2-carboxamide], the IC50 is reported as 510 nM.
For `COc1c(C(F)(F)F)ccc(Oc2ccc(F)c(F)c2)c1C(=O)Nc1ccnc(C(N)=O)c1` [Compound 55, 4-[[6-(3,4-difluorophenoxy)-2-methoxy-3-(trifluoromethyl)benzoyl]amino]pyridine-2-carboxamide], the IC50 was 420 nM.
For `COc1c(C(F)(F)F)ccc(Oc2ccc(OC(C)C)c(Cl)c2)c1C(=O)Nc1ccnc(C(N)=O)c1` [Compound 56, 4-[[6-(3-chloro-4-isopropoxy-phenoxy)-2-methoxy-3-(trifluoromethyl)benzoyl]amino]pyridine-2-carboxamide], the IC50 was 48 nM.
Compound `COc1c(C(F)(F)F)ccc(Oc2ccc(F)c(Cl)c2)c1C(=O)Nc1ccnc(C(N)=O)c1` [Compound 57, 4-[[6-(3-chloro-4-fluoro-phenoxy)-2-methoxy-3-(trifluoromethyl)benzoyl]amino]pyridine-2-carboxamide] has an IC50 of 350 nM.
In the case of `COc1c(Oc2ccc(C(F)(F)F)c(OC)c2C(=O)Nc2ccnc(C(N)=O)c2)ccc(F)c1F` [Compound 58, 4-[[6-(3,4-difluoro-2-methoxy-phenoxy)-2-methoxy-3-(trifluoromethyl)benzoyl]amino]pyridine-2-carboxamide], the IC50 is reported as 150 nM.
`COc1c(C(F)(F)F)ccc(Oc2ccc(F)cc2Cl)c1C(=O)Nc1ccnc(C(N)=O)c1` [Compound 59, 4-[[6-(2-chloro-4-fluoro-phenoxy)-2-methoxy-3-(trifluoromethyl)benzoyl]amino]pyridine-2-carboxamide] gave an IC50 of 100 nM.
In the case of `COc1c(C(F)(F)F)ccc(Oc2ccc(OC3CCCCC3)cc2)c1C(=O)Nc1ccnc(C(N)=O)c1` [Compound 60, 4-[[6-[4-(cyclohexoxy)phenoxy]-2-methoxy-3-(trifluoromethyl)benzoyl]amino]pyridine-2-carboxamide], the IC50 is reported as 520 nM.
For `COc1c(C(F)(F)F)ccc(Oc2ccc(F)c(C)c2)c1C(=O)Nc1ccnc(C(N)=O)c1` [Compound 61, 4-[[6-(4-fluoro-3-methyl-phenoxy)-2-methoxy-3-(trifluoromethyl)benzoyl]amino]pyridine-2-carboxamide], the IC50 was 490 nM.
`COc1c(C(F)(F)F)ccc(Oc2ccc(F)cc2F)c1C(=O)Nc1ccnc(C(N)=O)c1` [Compound 62, 4-[[6-(2,4-difluorophenoxy)-2-methoxy-3-(trifluoromethyl)benzoyl]amino]pyridine-2-carboxamide] was tested, and the IC50 was 440 nM.
`COc1c(C(F)(F)F)ccc(Oc2ccccc2)c1C(=O)Nc1ccnc(C(N)=O)c1` [Compound 63, 4-[[2-methoxy-6-phenoxy-3-(trifluoromethyl)benzoyl]amino]pyridine-2-carboxamide] showed an IC50 of 1800 nM.
Work on `COc1c(C(F)(F)F)ccc(Oc2ccc(F)cc2C)c1C(=O)Nc1ccnc(C(N)=O)c1` [Compound 64, 4-[[6-(4-fluoro-2-methyl-phenoxy)-2-methoxy-3-(trifluoromethyl)benzoyl]amino]pyridine-2-carboxamide] yielded an IC50 of 63 nM.
`COc1c(C(F)(F)F)ccc(Oc2ccc(OC(F)(F)F)c(F)c2)c1C(=O)Nc1ccnc(C(N)=O)c1` [Compound 65, 4-[[6-[3-fluoro-4-(trifluoromethoxy)phenoxy]-2-methoxy-3-(trifluoromethyl)benzoyl]amino]pyridine-2-carboxamide] was tested, and the IC50 was 36 nM.
